Source: patent US20060194769A1, “Small molecules that reduce fungal growth” (University of Vermont and State Agricultural College, priority 2005, published 2006)

Columns and labels:
Candida albicans = test: Quantification of inhibition of the budded-to-hyphal-form transition and synergy assay in 10% serum media; type: cell-based; conditions: 37° C., synergy assay: two molecules (100 μM) added together, normalized to % hyphae formed when no molecule was added
Protocol: Cultures of Candida albicans were grown as described in Toenjes K. A. et al. (Antimicrobial Agents and Chemotherapy, 49(3):963-972, 2005). To induce hyphal growth, stationary-phase cultures were diluted into 5 ml of either YPD (1% yeast extract, 2% peptone, and 2% dextrose) plus 10% (vol/vol) fetal calf serum, Spider medium, Lee's medium (Lee, K. et al., Sabouraudia, 13:148-153, 1975), or M199 pH 8 medium (Sigma-Aldrich, St. Louis, Mo.) and grown at 37° C. with shaking at 250 rpm.
Quantification of inhibition of the budded-to-hyphal-form transition was accomplished by counting the numbers of individual budded cells versus the number of hyphae in the population. More than 100 cells were counted for each assay in duplicate and all assays were repeated four times. Individual hyphae were counted as one cell, although the hyphae usually consisted of multiple individual hyphal cells. The percentage of hyphae reported was normalized to the percentage of hyphae formed when no molecule was added.
For the synergy assay, two different molecules (100 μM) were added together and the assay was performed in 10% serum media to induce hyphal formation.

tumor = conditions: cited from earlier work

Structure (SMILES)	% hyphae in 10% serum (Candida albicans) [%]	anti-tumor activity (tumor)
O=C(Nc1ccccc1)c1cc([N+](=O)[O-])ccc1Cl [GW9662, 2-Chloro-5-nitro-N-phenylbenzamide]	59	–
CCOC(=O)C1=C(N)Oc2ccc(Br)cc2C1C(C#N)C(=O)OCC (centres unmarked) [HA14-1, Ethyl[2-amino-6-bromo-4-(1-cyano-2-ethoxy-2-oxoethyl)]-4H-chromene-3-carboxylate]	34	–
CN1CCN(C2=Nc3cc(Cl)ccc3Nc3ccccc32)CC1 [Clozapine, 8-Chloro-11-(4-methyl-1-piperazinyl)-5H-dibenzo[b,e][1,4]-diazepine]	33	–
CCC(C)C(COC(Cc1ccccc1)C(=O)NC(CCS(C)(=O)=O)C(=O)OC(C)C)NCC(N)CS [L-744,832, (2S)-2-[[(2S)-2-[(2S,3S)-2-[(2R)-2-Amino-3-mercaptopropyl]amino]-3-methylpentyl]oxy]-1-oxo-3-phenylpropyl]amino]-4-(methylsulfonyl)-butanoic Acid 1-Methylethyl Ester]	–	potent anti-tumor activity
OCc1ccc(-c2nn(Cc3ccccc3)c3ccccc23)o1 [YC-1, 3-(5′-Hydroxymethyl-2′-furyl)-1-benzylindazole]	–	potent anti-tumor activity
